{"source": "patent US20090311237A1", "about": "“Combination therapy using a soluble hyaluronidase and a bisphosphonate” (priority 2008, published 2009)", "assay": "Pharmacokinetics of ZA in pig serum after IV or SC infusion with or without rHuPH20 (LC-MS-MS, non-compartmental analysis)", "type": "in vivo", "conditions": "female, Yorkshire, pig, serum, subcutaneous, […], ZA […], read-out: Zoledronic Acid Serum Concentration", "experimental": "A pharmacokinetic study of zoledronic acid (ZA) co-administered with rHuPH20 in female Yorkshire swines was conducted. The primary objective of the study was to determine the bioavailability of zoledronic acid dosed via subcutaneous (SC) co-administration with human recombinant hyaluronidase PH20 (rHuPH20) and to compare the overall exposure to an equivalent IV dose.\nAnimals in Study Group 1 were dosed with 0.15 mg/kg ZA given via a 20-minute IV infusion. Animals in Study Groups 2 and 3 were dosed subcutaneously (SC) with 0.15 mg/kg ZA without and with rHuPH20, respectively, in different SC delivery volumes.\nFollowing ZA dose administration, serial blood samples were collected via vascular access ports (VAPs) for serum preparation and determination of ZA concentrations. Blood collection times were at 1, 3, 5, 10, 15, 20, 30, 45, and 60 minutes, and at 1.5, 2, 3, 4, 6, 8, 10, 24, 48, and 72 hours post dose. Urine samples were also collected to compare excretion characteristics between IV and SC routes of administration. Collection times for urine were at 15 minutes before dosing (−15 min.), continuously from dose initiation to 2 hours post dose, and at 4, 6, 8, and 24 hours post dose thereafter.\nSerum concentration of ZA was determined using a qualified LC-MS-MS assay after derivatization with diazomethane (Zhu, L S et al. (2006) Rapid Commun. Mass Spectrom. 20: 3421-3426; “Qualification Data of An LC-MS/MS Method for the Determination of Zoledronate in Porcine Serum”, MDS Pharma Services Study No. AA43671-01, Report Date 14 Sep. 2007). The assay range was from 2.0 to 400 ng/mL with a lower limit of quantitation (LLOQ) at 2.0 ng/mL. Urine concentration of ZA was determined by a similar well qualified LC-MS-MS method (“Qualification Data of An LC-MS/MS Method for the Determination of Zoledronate in Porcine Urine”, MDS Pharma Services Study No. AA43671-02, Report Date 14 Sep. 2007) with an assay LLOQ at 10 ng/mL.\nPharmacokinetic (PK) analyses of ZA serum concentration versus time data were conducted using WinNonlin v5.1 (Pharsight, Mountain View, Calif.). Non-compartmental analysis was used for derivation of primary and secondary pharmacokinetic (PK) parameters. AUC, Cmax, and Tmax were compared between dose routes, between co-administration with rHuPH20, and with dose of rHuPH20.", "note": "Where two headings read alike, the source gives them in different places."}
{"compound": "O=P(O)(O)C(O)(Cn1ccnc1)P(=O)(O)O", "note": "[ZA, 1-hydroxy-2-(1H-imidazol-1-yl)ethylidene-1,1-bisphosphonic acid]", "values": [{"measurement": "concentration at 1 h", "setting": "Time 1 h, pig ID 70, Study Group 2, SC, 10 mL, 1.6 min, rHuPH20 0 U/mL", "value": 101, "unit": "ng/mL"}, {"measurement": "concentration at 2 h", "setting": "Time 2 h, pig ID 59, Study Group 2, SC, 100 mL, 16 min, rHuPH20 0 U/mL", "value": 22.9, "unit": "ng/mL"}, {"measurement": "concentration at 2 h", "setting": "Time 2 h, pig ID 60, Study Group 2, SC, 100 mL, 16 min, rHuPH20 0 U/mL", "value": 75.8, "unit": "ng/mL"}, {"measurement": "concentration at 2 h", "setting": "Time 2 h, pig ID 62, Study Group 2, SC, 50 mL, 8 min, rHuPH20 0 U/mL", "value": 28.4, "unit": "ng/mL"}, {"measurement": "concentration at 2 h", "setting": "Time 2 h, pig ID 69, Study Group 2, SC, 25 mL, 4 min, rHuPH20 0 U/mL", "value": 31.8, "unit": "ng/mL"}, {"measurement": "concentration at 2 h", "setting": "Time 2 h, pig ID 70, Study Group 2, SC, 10 mL, 1.6 min, rHuPH20 0 U/mL", "value": 37.7, "unit": "ng/mL"}, {"measurement": "concentration at 3 h", "setting": "Time 3 h, pig ID 59, Study Group 2, SC, 100 mL, 16 min, rHuPH20 0 U/mL", "value": 13.3, "unit": "ng/mL"}, {"measurement": "concentration at 3 h", "setting": "Time 3 h, pig ID 60, Study Group 2, SC, 100 mL, 16 min, rHuPH20 0 U/mL", "value": 27.5, "unit": "ng/mL"}, {"measurement": "concentration at 3 h", "setting": "Time 3 h, pig ID 62, Study Group 2, SC, 50 mL, 8 min, rHuPH20 0 U/mL", "value": 13.5, "unit": "ng/mL"}, {"measurement": "concentration at 3 h", "setting": "Time 3 h, pig ID 69, Study Group 2, SC, 25 mL, 4 min, rHuPH20 0 U/mL", "value": 20.5, "unit": "ng/mL"}, {"measurement": "concentration at 3 h", "setting": "Time 3 h, pig ID 70, Study Group 2, SC, 10 mL, 1.6 min, rHuPH20 0 U/mL", "value": 22.2, "unit": "ng/mL"}, {"measurement": "concentration at 4 h", "setting": "Time 4 h, pig ID 59, Study Group 2, SC, 100 mL, 16 min, rHuPH20 0 U/mL", "value": 6.48, "unit": "ng/mL"}, {"measurement": "concentration at 4 h", "setting": "Time 4 h, pig ID 60, Study Group 2, SC, 100 mL, 16 min, rHuPH20 0 U/mL", "value": 9.03, "unit": "ng/mL"}, {"measurement": "concentration at 4 h", "setting": "Time 4 h, pig ID 62, Study Group 2, SC, 50 mL, 8 min, rHuPH20 0 U/mL", "value": 4.74, "unit": "ng/mL"}, {"measurement": "concentration at 4 h", "setting": "Time 4 h, pig ID 69, Study Group 2, SC, 25 mL, 4 min, rHuPH20 0 U/mL", "value": 8.11, "unit": "ng/mL"}, {"measurement": "concentration at 4 h", "setting": "Time 4 h, pig ID 70, Study Group 2, SC, 10 mL, 1.6 min, rHuPH20 0 U/mL", "value": 9.47, "unit": "ng/mL"}, {"measurement": "concentration at 6 h", "setting": "Time 6 h, pig ID 60, Study Group 2, SC, 100 mL, 16 min, rHuPH20 0 U/mL", "value": 3.6, "unit": "ng/mL"}, {"measurement": "concentration at 6 h", "setting": "Time 6 h, pig ID 62, Study Group 2, SC, 50 mL, 8 min, rHuPH20 0 U/mL", "value": 2.99, "unit": "ng/mL"}, {"measurement": "concentration at 6 h", "setting": "Time 6 h, pig ID 69, Study Group 2, SC, 25 mL, 4 min, rHuPH20 0 U/mL", "value": 2.92, "unit": "ng/mL"}, {"measurement": "concentration at 6 h", "setting": "Time 6 h, pig ID 70, Study Group 2, SC, 10 mL, 1.6 min, rHuPH20 0 U/mL", "value": 4.09, "unit": "ng/mL"}, {"measurement": "concentration at 8 h", "setting": "Time 8 h, pig ID 70, Study Group 2, SC, 10 mL, 1.6 min, rHuPH20 0 U/mL", "value": 2.07, "unit": "ng/mL"}, {"measurement": "concentration at […]", "setting": "pig 56, Study Group 3, SC, rHuPH20 10000 U/mL, 25 mL over 4 min, time […]", "value": 29.2, "unit": "ng/mL"}, {"measurement": "concentration at 2 h", "setting": "pig 58, Study Group 3, SC, rHuPH20 10000 U/mL, 50 mL over 8 min, time 2 h", "value": 40.1, "unit": "ng/mL"}, {"measurement": "concentration at 3 h", "setting": "pig 58, Study Group 3, SC, rHuPH20 10000 U/mL, 50 mL over 8 min, time 3 h", "value": 10.8, "unit": "ng/mL"}, {"measurement": "concentration at 4 h", "setting": "pig 58, Study Group 3, SC, rHuPH20 10000 U/mL, 50 mL over 8 min, time 4 h", "value": 8.27, "unit": "ng/mL"}, {"measurement": "concentration at 6 h", "setting": "pig 58, Study Group 3, SC, rHuPH20 10000 U/mL, 50 mL over 8 min, time 6 h", "value": 2.65, "unit": "ng/mL"}, {"measurement": "concentration at 0.05 h", "setting": "pig 64, Study Group 3, SC, rHuPH20 10000 U/mL, 100 mL over 16 min, time 0.05 h", "value": 57, "unit": "ng/mL"}, {"measurement": "concentration at 0.333 h", "setting": "pig 64, Study Group 3, SC, rHuPH20 10000 U/mL, 100 mL over 16 min, time 0.333 h", "value": 253, "unit": "ng/mL"}, {"measurement": "concentration at 0.5 h", "setting": "pig 64, Study Group 3, SC, rHuPH20 10000 U/mL, 100 mL over 16 min, time 0.5 h", "value": 197, "unit": "ng/mL"}, {"measurement": "concentration at 1 h", "setting": "pig 64, Study Group 3, SC, rHuPH20 10000 U/mL, 100 mL over 16 min, time 1 h", "value": 101, "unit": "ng/mL"}, {"measurement": "concentration at 2 h", "setting": "pig 64, Study Group 3, SC, rHuPH20 10000 U/mL, 100 mL over 16 min, time 2 h", "value": 50.9, "unit": "ng/mL"}, {"measurement": "concentration at 3 h", "setting": "pig 64, Study Group 3, SC, rHuPH20 10000 U/mL, 100 mL over 16 min, time 3 h", "value": 29.8, "unit": "ng/mL"}]}
